Here are results for 17 molecules from patent US5071850A, “2,3-dihydro-3-arylalkylaminoalkyl-4H-1,3-benzoxazin-4-one derivatives, their preparation and their application as medicinal products which are useful in therapy” (Pierre Fabre Medicament, priority 1988, dated 1991).

Where a name gives a salt, the structure may show the parent alone. A value given as a limit tells only on which side of the number the result lay.

Data set [1] is described as follows: Acute intravenous toxicity in mice (LD50, Miller and Tainter). The settings on record: mouse, in vivo, mice weighing 20 to 22 g. The protocol:
The chemical compounds described above were subjected to toxicity controls. This study was carried out on conventional mice weighing 20 to 22 g. The watersoluble salts of the compounds of general formula I were administered intravenously. The 50% lethal dose (LD50) is calculated according to the method of Miller and Tainter (Proc. Soc. Exp. Biol. Med. 1944, 57, 261).

Another data set has as its system anesthetized rats. The data set is described as follows: Coronary ligation in anesthetized rats (antiarrhythmic activity and heart rate). Type of data set: in vivo. Particulars: for % fall in heart rate after 1 min: 1 min after injection; for % fall in heart rate after 1 min / % fall in heart rate after 10 min: % change relative to controls; for % fall in heart rate after 10 min: 10 min after injection; for % fall in arrhythmias: coronary ligation. The source says:
a) The technique of coronary ligation in anesthetized rats according to Clark et al. (J. Pharm. […] SC denotes the percentage reduction in disorders of rhythm induced by these compounds, n denotes the number of animals.

Data set [2] concerns rats anesthetized with pentobarbital sodium. The data set is described as follows: Bradycardic effect and intracardiac conduction times (ECG, arterial pressure) in pentobarbital-anesthetized rats. Type of data set: in vivo. The settings on record: for % ABP (mean arterial blood pressure) / % HR (heart rate): % change at peak of action; for % modification of the ECG intervals: PQ (atrioventricular conduction time) / % modification of the ECG intervals: QRS (intraventricular conduction time) / % modification of the ECG intervals: QTS / % modification of the ECG intervals: TP (electrocardiac diastole): at peak of action. As to the method:
b) The bradycardic effect and the analysis of the intracardiac conduction times were studied on rats anesthetized with pentobarbital sodium (40 mg/kg ip) and left in spontaneous ventilation. The electrocardiogram is recorded simultaneously in the standard leads OI, OII and OIII; the arterial blood pressure is measured on a femoral artery. The percentage changes are considered at the peak of action. The results relating to the compounds A, B, J, G and N are given in Table III, by way of non-limiting example.

In another data set the test system is conscious dogs. The data set is described as follows: Bradycardic effect in conscious dogs with hydralazine-raised heart rate (Kobinger and Lillie). The data set is classed as in vivo. As to the method: When the latter has stabilized, the test products are injected intravenously.
A further data set relates to Right atrium. The data set is described as follows: Chronotropic effect on isolated spontaneously beating right atrium. Set-up: species or system guineapig. Particulars: Cavia porcellus, spontaneous rhythm, percentage change; for inhibition at 1 µg/mL: 1 ug/ml. As to the method: (§1) c) Finally, the chronotropic and inotropic activities were measured on isolated guineapig atria placed in isolated organ cells. The organs are then connected to force gauges. The right atrium, beating in a spontaneous rhythm, enables the negative chronotropic effects of the products to be assessed. As regards the left atria, these are electrically stimulated at a fixed rhythm so as to evaluate actions on the inotropic effect. The percentage changes are recorded in Table V for the compounds A, B, G and J, by way of non-limiting examples.

For the next data set, the system named is Left atrium. The data set is described as follows: Inotropic effect on isolated electrically stimulated left atrium. Set-up: species or system guineapig. Particulars: Cavia porcellus, electrically stimulated at fixed rhythm, percentage change; for inhibition at 1 µg/mL: 1 ug/ml. The protocol: as §1
A short description of another data set: Solubility in water. Type of data set: physicochemical.

Molecule `COc1ccc(CCN(C)CCCN2COc3ccccc3C2=O)cc1OC.Cl` [Compound A, 2,3-Dihydro-3-{3-[(methyl)(3,4-dimethoxyphenethyl)amino]propyl}-4H-1,3-benzoxazin-4-one hydrochloride] yielded an LD50 in data set [1] of 27 mg/kg. Further, in the data set on anesthetized rats (2.5 mg/kg iv), the “% fall in heart rate after 1 min” value was -30%, the “% fall in heart rate after 10 min” value was -11% and the “% fall in arrhythmias” value is -9%. Further, in the data set with anesthetized rats (10 mg/kg iv), the “% fall in heart rate after 1 min” value was -50%, the “% fall in heart rate after 10 min” value is given as -19% and the “% fall in arrhythmias” value is on record as -76%. In addition, in data set [2] (3 mg/kg iv), the “% ABP (mean arterial blood pressure)” value is on record as -33%, the “% HR (heart rate)” value is given as -31%, the “% modification of the ECG intervals: PQ (atrioventricular conduction time)” value (“% modification of the ECG intervals: PQ” below) is “+26%” and the “% modification of the ECG intervals: QRS (intraventricular conduction time)” value (“% modification of the ECG intervals: QRS” for short) is recorded as “+11%”. In addition, in data set [2] (3 mg/kg iv), the “% modification of the ECG intervals: QTS” value is reported as “+29%” and the “% modification of the ECG intervals: TP (electrocardiac diastole)” value (shortened to “% modification of the ECG intervals: TP”) is on record as “+76%”. For the same molecule, in the data set on conscious dogs (1 mg/kg iv, after test product, hydralazine tachycardia), the Heart rate after is given as 140 bts/min. Also, the Heart rate before in the data set with conscious dogs (1 mg/kg iv, before test product, after hydralazine 1 mg/kg iv) came to 215 bts/min. Moreover, the “Heart rate Change” value in the data set with conscious dogs (1 mg/kg iv, hydralazine tachycardia) is -35%. In the data set on Right atrium (0.3 ug/ml), this molecule showed an inhibition at 0.3 µg/mL of 15%. In the data set with Right atrium, this molecule showed an inhibition at 1 µg/mL of 19%. The inhibition at 0.3 µg/mL in the data set on Left atrium (0.3 ug/ml) was 16%. The same molecule showed an inhibition at 1 µg/mL in the data set on Left atrium of 15%. Further, the solubility in the data set “Solubility in water” came out at 100 mg/mL.
`COc1ccc(CCN(C)CCCN2COc3c(OC)cccc3C2=O)cc1OC.Cl` [Compound C, 2,3-Dihydro-3-{3-[(methyl)(3,4-dimethoxyphenethyl)amino]propyl}-8-methoxy-4H-1,3-benzoxazin-4-one hydrochloride]: the solubility in “Solubility in water” was approximately 100 mg/mL.
In turn, `COc1ccc2c(c1)C(=O)N(CCCN(C)CCc1ccc(OC)c(OC)c1)CO2.Cl` [Compound D, 2,3-Dihydro-3-{3-[(methyl)(3,4-dimethoxyphenethyl)amino]propyl}-6-methoxy-4H-1,3-benzoxazin-4-one hydrochloride] yielded a solubility in “Solubility in water” of more than 100 mg/mL.
With `COc1ccc2c(c1)OCN(CCCN(C)CCc1ccc(OC)c(OC)c1)C2=O.Cl` [Compound E, 2,3-Dihydro-3-{3-[(methyl)(3,4-dimethoxyphenethyl)amino]propyl}-7-methoxy-4H-1,3-benzoxazin-4-one hydrochloride], the solubility in “Solubility in water” came to 100 mg/mL.
Molecule `COc1ccc(CCN(C)CCCN2COc3ccc(C)cc3C2=O)cc1OC.Cl` [Compound F, 2,3-Dihydro-3-{3-[(methyl)(3,4-dimethoxyphenethyl)amino]propyl}-6-methyl-4H-1,3-benzoxazin-4-one hydrochloride] came in with a solubility in the data set “Solubility in water” of approximately 100 mg/mL.
Consider `COc1ccc(CCN(C)CCCN2COc3cc(C)ccc3C2=O)cc1OC.Cl` [Compound G, 2,3-Dihydro-3-{3-[(methyl)(3,4-dimethoxyphenethyl)amino]propyl}-7-methyl-4H-1,3-benzoxazin-4-one hydrochloride], for which, in the data set with anesthetized rats (2.5 mg/kg iv), the “% fall in heart rate after 1 min” value is reported as -39%, the “% fall in heart rate after 10 min” value is listed as -16% and the “% fall in arrhythmias” value was -1%. In data set [2] (1 mg/kg iv), the “% ABP (mean arterial blood pressure)” value is reported as -10%, the “% HR (heart rate)” value is given as -18%, the “% modification of the ECG intervals: PQ” value was “+10%” and the “% modification of the ECG intervals: QRS” value is recorded as “+5%”. Also, in data set [2] (1 mg/kg iv), the “% modification of the ECG intervals: QTS” value is given as “+12%” and the “% modification of the ECG intervals: TP” value is listed as “+32%”. Further, at 1 µg/mL the inhibition with Right atrium was 35%. In the data set on Left atrium, the inhibition at 1 µg/mL stood at 4%. In “Solubility in water”, this molecule came in with a solubility of 90 mg/mL.
The molecule `COc1ccc(CCN(C)CCCN2COc3c(C)cccc3C2=O)cc1OC.Cl` [Compound H, 2,3-Dihydro-3-{3-[(methyl)(3,4-dimethoxyphenethyl)amino]propyl}-8-methyl-4H-1,3-benzoxazin-4-one hydrochloride] yielded a solubility in “Solubility in water” of 80 mg/mL.
On to `COc1ccc(CCN(C)CCCN2COc3cc(Cl)ccc3C2=O)cc1OC.Cl` [Compound J, 7-Chloro-2,3-dihydro-3-{3-[(methyl)(3,4-dimethoxyphenethyl)amino]propyl}-4H-1,3-benzoxazin-4-one hydrochloride], for which, in the data set on anesthetized rats (2.5 mg/kg iv), the “% fall in heart rate after 1 min” value was -32%, the “% fall in heart rate after 10 min” value is listed as -12% and the “% fall in arrhythmias” value is on record as -37%. In data set [2] (1 mg/kg iv), the “% ABP (mean arterial blood pressure)” value is -13%, the “% HR (heart rate)” value was -16%, the “% modification of the ECG intervals: PQ” value is “+9%” and the “% modification of the ECG intervals: QRS” value is recorded as “+12%”. Besides, in data set [2] (1 mg/kg iv), the “% modification of the ECG intervals: QTS” value was “+12%” and the “% modification of the ECG intervals: TP” value is reported as “+29%”. Besides, the inhibition at 1 µg/mL in the data set on Right atrium is 29%. This molecule also showed an inhibition at 1 µg/mL with Left atrium of 11%. Moreover, the solubility in the data set “Solubility in water” was determined as 120 mg/mL.
Molecule `COc1ccc(CCN(C)CCCN2COc3ccc(Br)cc3C2=O)cc1OC.Cl` [Compound K, 6-Bromo-2,3-dihydro-3-{3-[(methyl)(3,4-dimethoxyphenethyl)amino]propyl}-4H-1,3-benzoxazin-4-one hydrochloride] displayed a solubility in the data set “Solubility in water” of 90 mg/mL.
`COc1ccc(CCN(C)CCCN2C(=O)c3cccc(OC)c3OC2C)cc1OC.Cl` (centres unmarked) [Compound L, 2,3-Dihydro-3-{3-[(methyl)(3,4-dimethoxyphenethyl)amino]propyl}-8-methoxy-2-methyl-4H-1,3-benzoxazin-4-one hydrochloride] registered a solubility in “Solubility in water” of 100 mg/mL.
In “Solubility in water”, `COc1ccc(CCN(C)CCCN2C(=O)c3cc(OC)c(OC)cc3OC2C)cc1OC.Cl` (centres unmarked) [Compound M, 2,3-Dihydro-6,7-dimethoxy-3-{3-[(methyl)(3,4-dimethoxyphenethyl)amino]propyl}-2-methyl-4H-1,3-benzoxazin-4-one hydrochloride] came in with a solubility of 100 mg/mL.
`CCCCCCCC1Oc2cc(OC)c(OC)cc2C(=O)N1CCCN(C)CCc1ccc(OC)c(OC)c1` (centres unmarked) [Compound N, hydrochloride]: in the data set on anesthetized rats (2.5 mg/kg iv), the “% fall in heart rate after 1 min” value is on record as -4%, the “% fall in heart rate after 10 min” value is on record as -6% and the “% fall in arrhythmias” value was -72%. Moreover, in data set [2] (1 mg/kg iv), the “% ABP (mean arterial blood pressure)” value is listed as -9%, the “% HR (heart rate)” value is -12%, the “% modification of the ECG intervals: PQ” value was “+7%” and the “% modification of the ECG intervals: QRS” value was “+12%”. In data set [2] (1 mg/kg iv), the “% modification of the ECG intervals: QTS” value was “+10%” and the “% modification of the ECG intervals: TP” value is on record as “+21%”. In addition, the solubility in “Solubility in water” is 100 mg/mL.
Turning to `COc1cc2c(cc1OC)C(=O)N(CCCN(C)CCc1ccccc1)CO2.Cl` [Compound O, 2,3-Dihydro-6,7-dimethoxy-3-{3-[(methyl)(phenethyl)amino]propyl}-4H-1,3-benzoxazin-4-one hydrochloride], the solubility in “Solubility in water” is more than 100 mg/mL.
The same measure, in the same setting: for `COc1ccc(CCNCCCN2COc3cc(OC)c(OC)cc3C2=O)cc1OC.Cl` [Compound P, 2,3-Dihydro-6,7-dimethoxy-3-[3-(3,4-dimethoxyphenethylamino)propyl]-4H-1,3-benzoxazin-4-one hydrochloride] the value was more than 100 mg/mL; for `COc1ccc(CCNCCN2COc3cc(OC)c(OC)cc3C2=O)cc1OC.Cl` [Compound R, 2,3-Dihydro-6,7-dimethoxy-3-[2-(3,4-dimethoxyphenethylamino)ethyl]-4H-1,3-benzoxazin-4-one hydrochloride], 120 mg/mL; for `COc1ccc(CCN(CCCN2COc3cc(OC)c(OC)cc3C2=O)Cc2ccccc2)cc1OC` [Example 17, 2,3-Dihydro-6,7-dimethoxy-3-{3-[(benzyl)(3,4-dimethoxyphenethyl)amino]propyl}-4H-1,3-benzoxazin-4-one hydrochloride monohydrate], 60 mg/mL.
Turning to `NNc1nncc2ccccc12` [hydralazine, reference compound], in the data set on conscious dogs (hydralazine 1 mg/kg iv, conscious dogs), the “heart rate effect of hydralazine” value is listed as “causes tachycardia”.
